Source: paper PMC6502747, “Preclinical toxicology and safety pharmacology of the first-in-class GADD45β/MKK7 inhibitor and clinical candidate, DTP3” (Toxicology Reports, 2019)
Like-named read-outs stand apart in the source and are kept apart here.

Experiments:
HepG2 cells = test: multi-parametric cytotoxicity assay (HCS); assay type: cell-based, human
Description: assessment/genetic-toxicology/regulatory-assays.html). Briefly, the numbers of revertant colonies for each of five histidine-requiring strains of Salmonella […]
different classes of genetically active compounds, were evaluated either in the presence or absence of metabolic activation by Aroclor 1254-induced rat liver post-mitochondrial S9 fraction (Supplementary Figure 2B). DTP3 was tested at the […]
expressed as the mean fold increase in colony number for each tester strain upon exposure to DTP3 or strain-specific control compounds (CTR) relative to exposure to vehicle control, either in the presence or absence of metabolic activation (Supplementary Figure 2C). The following significance thresholds were applied to each strain: ≥1.5 folds, strain TA102; ≥2-fold, strains TA98 and TA100; ≥3-fold, […]
(http://www.cyprotex.com/toxicology/multiparametric/cytotoxicity-screening-panel), using High Content Screening (HCS). […]
were treated with a specific dye or antibody, as required by the assay. Plates were then scanned using an ArrayScan VTI automated fluorescence cell imager (Thermo Scientific Cellomics) and analysed for the following measures of toxicity: nuclear size and nuclear morphology, cell membrane permeability, mitochondrial mass, mitochondrial membrane potential (DYm), and cytochrome c release (Figure 2). […]
each compound, cytotoxicity was scored by assessing the minimum effective concentration (MEC) inducing a significant effect relative to vehicle control. […]
and positive controls, respectively. Briefly, upon formation of a stable Gigaohm (GΩ) seal between patch electrodes and individual hERG-expressing HEK-293 cells, hERG-dependent outward tail currents were measured following depolarisation of the cell membrane to […] for 2 s (activation of channels) from a holding potential of - 80 mV, and following subsequent repolarisation to -40 mV, for 3 s. […]
. Electrophysiological measurements were recorded using PatchMaster software (Version v2x73_2). […] The amount of current block was calculated as the percentage of control current. […]

[1] = system: Sigma receptors (non-selective); test: Sigma receptor functional assay (agonistic/antagonistic effect); assay type: biochemical
Source text: SUPPLEMENTARY FIGURE LEGENDS
Supplementary Figure 1 – Related to Figure 1. […]
Values represent the mean
percentage of variation of the response to the reference Sigma-receptor ligand in the
in the absence of any other agents. […]

CYP2C8 = CYP2C8 (Homo sapiens, UniProt P10632); conditions: read-out: CYP2C8 IC50
CYP2C8, sequence (P10632 whole entry): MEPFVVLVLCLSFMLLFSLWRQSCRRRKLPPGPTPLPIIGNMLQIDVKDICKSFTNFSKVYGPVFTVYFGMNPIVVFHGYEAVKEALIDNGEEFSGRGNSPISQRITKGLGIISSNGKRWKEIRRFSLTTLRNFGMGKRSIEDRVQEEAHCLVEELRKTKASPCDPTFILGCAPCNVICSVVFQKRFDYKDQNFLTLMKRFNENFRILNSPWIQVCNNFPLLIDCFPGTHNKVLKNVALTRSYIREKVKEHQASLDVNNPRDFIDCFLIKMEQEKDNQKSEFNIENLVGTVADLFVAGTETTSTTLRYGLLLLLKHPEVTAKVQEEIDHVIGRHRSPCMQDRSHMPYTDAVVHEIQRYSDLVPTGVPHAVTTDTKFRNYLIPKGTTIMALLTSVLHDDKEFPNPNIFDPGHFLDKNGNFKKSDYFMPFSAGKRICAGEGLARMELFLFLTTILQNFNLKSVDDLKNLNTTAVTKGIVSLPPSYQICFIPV
Source text: investigated in vitro, using time-dependent inhibition and catalytic induction assays
conducted at Cyprotex laboratories in accordance with in-house SOP

[2] = rat plasma
Description: Pooled plasma and faeces samples were prepared for metabolite profiling and
identification by sequential extraction with acetonitrile. Pooled urine samples were
centrifuged to remove particulate material. For each sample, metabolite profiles
were generated using radio-HPLC. On-line radio-detection was used for urine and
faeces, whereas off-line radio-detection was used for plasma, due to the low
radioactivity levels present in plasma samples. Selected samples were further
analysed by high resolution LC-MS(/MS) in order to characterise the most notable
Results were expressed as the mean of the indicated number of samples. The
statistical error was calculated as either standard deviation (SD) or standard error of
the mean (SEM), as indicated, according to the typology of the experiments.

## CN(C)CCCN1c2ccccc2Sc2ccc(Cl)cc21 [Chlorpromazine, chlorpromazine]
HepG2 cells
  MEC Cell membrane permeability: 1.12 µM
HepG2 cells; human, 72 h
  MEC Cytochrome C release: 1.30 µM
  MEC Mitochondrial membrane potential: 4.70 µM

## C[C@@H]1CN(CCCn2c3ccccc3c3ccccc32)C[C@H](C)N1 [Rimcazole, rimcazole]
[1]; [Drug] 1.0E-0.5 M
  Antagonistic Effect, Response: -6 % of ligand binding
[1]; [Drug] 1.0E-0.6 M
  Antagonistic Effect, Response: 84 % of ligand binding
[1]; [Drug] 3.0E-0.6 M
  Antagonistic Effect, Response: 49 % of ligand binding

## Cc1ccc(C)c(OCCCC(C)(C)C(=O)O[C@@H]2O[C@H](C(=O)O)[C@@H](O)[C@H](O)[C@H]2O)c1 [gemfibrozilglucuronide]
CYP2C8; 0 min
  IC50: 30.9 µM
CYP2C8; 30 min, + NADPH
  IC50: 5.84 µM
CYP2C8; 30 min, - NADPH
  IC50: 30.3 µM

## (+) SKF-10,047
[1]
  Agonistic Effect, Response: 48 % of ligand binding
[1]; [Drug] 1.0E-0.5 M
  Agonistic Effect, Response: 17 % of ligand binding

## methoxy-DTP3 [P7 (methoxy DTP3)]
[2]; 10 m
  radio-labelled species in plasma profile: 0.8
[2]; 1 hr
  radio-labelled species in plasma profile: 0.8
